The values below come from US20090281054A1, “COMPOSITIONS AND METHODS COMPRISING CAPURAMYCIN ANALOGUES” (priority 2008, published 2009).

pIC50: −log10 of the molar value. Values after ≈ are worked out from the molar mass of the structure shown. Read-outs that look alike come from different tables or passages of the source.

One data set has as its system M. avium complex (MAC). Put plainly: MIC by microdilution method in 7H9 broth. The settings on record: for MIC90: value in square brackets. It is filed as cell-based. In general terms: Dilution methods test growth across graded concentrations, often in twofold steps.
Data set [1] concerns M. smegmatis (MSMG; MC2155). Description: MIC by microdilution method in 7H9 broth. It is filed as cell-based. The settings on record: MSMG MC^2155, 72 hr.
Data set [2] relates to M. kansaii (MKN; ATCC12478 & 35775). Description: MIC by microdilution method in 7H9 broth. Type of data set: cell-based, M. kansasii.
The target of a further data set is translocase I (Escherichia coli, UniProt P0A6W3). Put plainly: IC50 against translocase I. Type of data set: biochemical.
Sequence of translocase I (P0A6W3 whole entry): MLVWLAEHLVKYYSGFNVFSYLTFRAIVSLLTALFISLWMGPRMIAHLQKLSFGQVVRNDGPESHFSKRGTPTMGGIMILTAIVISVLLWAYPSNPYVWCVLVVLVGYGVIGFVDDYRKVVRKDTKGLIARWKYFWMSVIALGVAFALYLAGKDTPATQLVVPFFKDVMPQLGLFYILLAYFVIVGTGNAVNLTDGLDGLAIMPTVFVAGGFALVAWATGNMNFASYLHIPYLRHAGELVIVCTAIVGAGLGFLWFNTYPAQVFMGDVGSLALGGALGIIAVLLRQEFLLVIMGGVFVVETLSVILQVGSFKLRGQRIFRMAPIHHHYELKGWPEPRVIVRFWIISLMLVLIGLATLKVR
Data set [3] concerns M. abscessus (MAB; ATCC 700869). Description: MIC by microdilution method in 7H9 broth. It is filed as cell-based. The settings on record: MAB 700869.
The next data set relates to M. abscessus. Put plainly: Synergy by checkerboard titration (microdilution). Type of data set: cell-based.
The subject of another data set is MTB in J774 cells. Put plainly: Intracellular activity of amino acid conjugates. It is filed as cell-based, Mycobacterium tuberculosis. The settings on record: day 0 RLU 775, Control day 7 31700. The method, then: The amino acid conjugates were tested at concentrations of 4 mg/mL and 8 mg/mL compared with a control and isoniazid (INH).
The intracellular activity against MTB by capuramycin amino acid derivatives was tested. Cells J774 were infected with MTB and treated for 7 days with the amino acid derivative. The mean Relative Light Unites (RLU), an estimation of bacterial viability, was measured as described in Snewin et al., Infect. Immun., 1999, 67(9), 4586-4593).

A further data set can be described thus: in vitro. It is filed as cell-based. The settings on record: mouse. The method, then: (§1) The SQ997 amino acid derivatives shown in Table 2 were tested for in vitro activity against MTB, cytotoxicity for uninfected J774 cells to determine IC50, and for intracellular activity in the macrophage assay (Table 15). […] Cell viability remained similar to SQ997, or slightly better as cell morphologic changes were reduced.

The test system of a further data set is MTB H37Rv. Put plainly: MIC by broth microdilution. It is filed as cell-based. The settings on record: Mycobacterium tuberculosis. The method, then:
as §1

Setting [4] is: Mycobacterium avium, 336 h, MAC isolates, 2 wk, read-out: MIC (range).
[5] abbreviates: Mycobacterium avium, MAC strain 100, read-out: MIC.
The mark [6] stands for this setting: Mycobacterium avium, MAC strain 101, read-out: MIC.
Setting [7] is: Mycobacterium avium, MAC strain 104, read-out: MIC.
[8] abbreviates: Mycobacterium avium, MAC strain 109, read-out: MIC.
[9] abbreviates: Mycobacterium avium, MAC strain A5, read-out: MIC.
[10] abbreviates: Mycobacterium avium, MAC strain JSH1, read-out: MIC.
Where [11] appears, read: Mycobacterium avium, MAC strain NIH C1-1, read-out: MIC.
The mark [12] stands for this setting: Mycobacterium avium, MAC strain NIH C1-2, read-out: MIC.
The mark [13] stands for this setting: Mycobacterium avium, MAC strain NIH C1-3, read-out: MIC.
Setting [14] is: Mycobacterium avium, MAC strain NIH C1-4, read-out: MIC.
[15] abbreviates: Mycobacterium avium, MAC isolates, read-out: MIC90.
[16] abbreviates: Mycolicibacterium smegmatis, MC2155|MC^2155, read-out: MIC.
Setting [17] is: Mycobacterium kansasii, ATCC 12478 / ATCC 35775, MKN ATCC35775, read-out: MIC.
The mark [18] stands for this setting: Mycobacterium kansasii, MKN ATCC12478, read-out: MIC.
Where [19] appears, read: Mycobacteroides abscessus, ATCC700869, read-out: MIC.

One may read the MIC as the lowest concentration that inhibits growth of the organism. Broadly, the MIC90 is the lowest concentration that inhibits either 90% of growth or 90% of the strains tested, depending on the study. By pIC50 is commonly meant −log10 of the IC50, conventionally taken in molar units. High values mean a small IC50, low ones a large IC50. For the molecule `CO[C@H]1[C@@H](O)[C@H](n2ccc(=O)[nH]c2=O)O[C@@H]1[C@@H](O[C@H]1OC(C(=O)Nc2ccc(F)c(F)c2F)=C[C@H](O)[C@@H]1O)C(N)=O` [RKS2235], the MIC with M. avium complex (MAC) (setting [4]) was 1 to 8 µg/mL (≈ 1.7 to 13.6 µM); in the data set on M. avium complex (MAC) (setting [5]) it was 2 µg/mL (≈ 3.4 µM); with M. avium complex (MAC) (setting [6]) it was 1 µg/mL (≈ 1.7 µM); in the data set on M. avium complex (MAC) (setting [7]), 1 µg/mL (≈ 1.7 µM); in the data set on M. avium complex (MAC) (setting [8]) it was 1 µg/mL (≈ 1.7 µM); with M. avium complex (MAC) (setting [9]) it was 1 µg/mL (≈ 1.7 µM). Further, the MIC with M. avium complex (MAC) (setting [10]) worked out at 2 µg/mL (≈ 3.4 µM); with M. avium complex (MAC) (setting [11]), 4 µg/mL (≈ 6.8 µM); in the data set with M. avium complex (MAC) (setting [12]), 2 µg/mL (≈ 3.4 µM); with M. avium complex (MAC) (setting [13]) it was 8 µg/mL (≈ 13.6 µM); with M. avium complex (MAC) (setting [14]), 2 µg/mL (≈ 3.4 µM); in [1] (setting [16]), 4 µg/mL (≈ 6.8 µM). Also, the figures for the MIC in data set [2] (setting [17]), in [2] (setting [18]) and in [3] (setting [19]) were 2 µg/mL (≈ 3.4 µM), more than 32 µg/mL and 16 µg/mL (≈ 27.2 µM), respectively. For the same molecule, the MIC90 with M. avium complex (MAC) (setting [15]) is 4 µg/mL (≈ 6.8 µM). Moreover, the pIC50 on translocase I was 7.77.
On to `CO[C@H]1[C@@H](O)[C@H](n2ccc(=O)[nH]c2=O)O[C@@H]1[C@@H](O[C@H]1OC(C(=O)Nc2ccc([N+](=O)[O-])cc2)=C[C@H](O)[C@@H]1O)C(N)=O` [RKS2243], for which the MIC in the data set on M. avium complex (MAC) (setting [4]) was 0.5 to 8 µg/mL (≈ 0.863 to 13.8 µM); with M. avium complex (MAC) (setting [5]), 1 µg/mL (≈ 1.73 µM); in the data set on M. avium complex (MAC) (setting [6]) it was 1 µg/mL (≈ 1.73 µM); in the data set with M. avium complex (MAC) (setting [7]), 1 µg/mL (≈ 1.73 µM); in the data set with M. avium complex (MAC) (setting [8]) it was 0.5 µg/mL (≈ 0.863 µM); in the data set with M. avium complex (MAC) (setting [9]), 0.5 µg/mL (≈ 0.863 µM). In addition, the MIC came out at 1 µg/mL (≈ 1.73 µM) in the data set on M. avium complex (MAC) (setting [10]); 4 µg/mL (≈ 6.9 µM) with M. avium complex (MAC) (setting [11]); 1 µg/mL (≈ 1.73 µM) with M. avium complex (MAC) (setting [12]); 8 µg/mL (≈ 13.8 µM) in the data set on M. avium complex (MAC) (setting [13]); 1 µg/mL (≈ 1.73 µM) in the data set on M. avium complex (MAC) (setting [14]); 4 µg/mL (≈ 6.9 µM) in [1] (setting [16]). Also, the MIC was 2 µg/mL (≈ 3.45 µM) in data set [2] (setting [17]), 32 µg/mL (≈ 55.2 µM) in data set [2] (setting [18]) and more than 32 µg/mL in data set [3] (setting [19]). The MIC90 in the data set with M. avium complex (MAC) (setting [15]) is 4 µg/mL (≈ 6.9 µM). Also, at translocase I, the pIC50 is 8.16.
As for `CO[C@H]1/C=C/O[C@@]2(C)Oc3c(C)c(O)c4c(c3C2=O)C2=NC3(CCN(CC(C)C)CC3)NC2=C(NC(=O)/C(C)=C\C=C\[C@H](C)[C@H](O)[C@@H](C)[C@@H](O)[C@@H](C)[C@H](OC(C)=O)[C@@H]1C)C4=O` [RFB, reference compound], the “MIC range” value against M. avium complex (MAC) (MAC isolates, 2 wk) lay within 7.8 to 125 ng/mL. Moreover, the MIC90 in the data set on M. avium complex (MAC) (MAC isolates) worked out at 0.062 µg/mL (≈ 0.0732 µM). In addition, the MIC in [1] was 0.25 µg/mL (≈ 0.295 µM); in data set [2] (MKN ATCC12478), “≦0.0039 μg/ml”; in data set [2] (MKN ATCC35775), “≦0.031 μg/ml”; in data set [3], 2 µg/mL (≈ 2.36 µM). Moreover, the “MIC Combination” value in the data set on M. abscessus (combination SQ641 + RFB) was determined as 0.25 µg/mL. Further, the “MIC Alone” value in the data set on M. abscessus (drug alone) was found to be 2.0 µg/mL.
Turning to `CCCCCCCCCC(=O)O[C@@H]1[C@H](OC)[C@@H]([C@@H](OC2OC(C(=O)N[C@H]3CCC[C@@H](C)NC3=O)=C[C@H](OC(=O)CCCCCCCCCCN)[C@@H]2O)C(N)=O)O[C@H]1n1ccc(=O)[nH]c1=O` (some centres unmarked) [SQ641-aua], the “Mean RLU on day 7” value in the data set with MTB in J774 cells (4 μg/ml) is on record as 3163 RLU; with MTB in J774 cells (8 μg/ml), 372 RLU.
For orientation: IC50 means the concentration at which inhibition is half-maximal. A lower IC50 goes with higher potency. The molecule `CO[C@H]1[C@@H](OC(=O)[C@H](N)C(C)C)[C@H](N2C=CC(=O)NC2)O[C@@H]1[C@@H](OC1OC(C(=O)N[C@H]2CCC[C@@H](C)NC2=O)=C[C@H](O)[C@@H]1O)C(N)=O` (stereo partly drawn) [Compound 997-D-Val] displayed an IC50 in “in vitro” of more than 32 µg/mL. This molecule also came in with an MIC in the data set with MTB H37Rv of 12.5 µg/mL (≈ 18.7 µM).
For the molecule `CO[C@H]1[C@@H](OC(=O)CCCCCCCN)[C@H](N2C=CC(=O)NC2)O[C@@H]1[C@@H](OC1OC(C(=O)N[C@H]2CCC[C@@H](C)NC2=O)=C[C@H](O)[C@@H]1O)C(N)=O` (some centres unmarked) [997-aminooctanoic acid], in the data set “in vitro”, the IC50 is more than 32 µg/mL. In addition, the MIC against MTB H37Rv was found to be 8 µg/mL (≈ 11.3 µM).
Turning to `CCCCCCCCCC(=O)O[C@@H]1[C@H](OC)[C@@H]([C@@H](OC2OC(C(=O)N[C@H]3CCC[C@@H](C)NC3=O)=C[C@H](OC(=O)CCOCCOCCOCCOCCN)[C@@H]2O)C(N)=O)O[C@H]1n1ccc(=O)[nH]c1=O` (some centres unmarked) [SQ641-topdec], the entries for the “Mean RLU on day 7” value in the data set with MTB in J774 cells (4 μg/ml) and in the data set on MTB in J774 cells (8 μg/ml) were 3368 RLU and 2143 RLU, respectively.
